# Data: paper PMC11862611 (RSC Medicinal Chemistry, 2025)
# Structures can show the parent of a compound that is named as a salt. Where two headings read alike, the source gives them in different places.
# Legend:
# [1] = tested on: L. major promastigotes (FV1) WT; test: anti-promastigote assay, L. major (resazurin); assay type: cell-based; settings: Leishmania major
# Protocol: 4.2.3.1. Anti-promastigote assays
# L. major promastigotes (FV1) WT, PX and Δ LCB2 in Schneider’s insect medium (100 μL at 1 × 106 mL−1) were incubated in 96-well plates with compounds in triplicate (amphotericin B and cycloheximide were used as positive controls, and untreated parasites with 1% DMSO as a negative control) at 26 °C for 48 h.
# Resazurin Solution (10 μL) was then added and the plate incubated at 26 °C for 4 h prior to measurement using a fluorescence plate reader (555 - 585 nm). EC50 values were calculated using sigmoidal regression analysis (GraphPad Prism). […]
# (§1) well-1 in a 24-well plate with round cover slips and incubated for 24 h at 37 °C and 5% CO2. […]
# [2] = tested on: L. amazonensis promastigotes; test: anti-promastigote assay, L. amazonensis (resazurin); assay type: cell-based; settings: Leishmania amazonensis
# Protocol: 4.2.3.1. Anti-promastigote assays […]
# Protocol 1: L. amazonensis promastigotes in Medium 199 (100 μL at 5 × 105 mL−1) were incubated in 96-well plates with compounds in triplicate (amphotericin B was used as a positive control, and untreated parasites with DMSO as a negative control) at 26 °C for 72 h. Resazurin Solution (10 μL) was then added and the plate incubated at 26 °C for 4 h prior to measurement using a fluorescence plate reader (555 - 585 nm). EC50 values were calculated using sigmoidal regression analysis (GraphPad Prism).
# Protocol 2: Same procedure as above with the modification of a 48 h incubation time as opposed to 72 h and Leishmania amazonensis (MHOM/Br/75/JOSEFA) in Schneider’s insect medium in the place of Leishmania amazonensis (MHOM/Br/75/JOSEFA) in Medium 199. […]
# as §1
# [3] = biological target: T1, L. majIPCS (Leishmania major, UniProt E9AFX2); test: inhibition of microsomal enzyme preparation of L. majIPCS; assay type: biochemical; settings: for inhibition at 20 µM: read-out: LmjIPCS inhibition % at 20 µM ± SD
# T1 construct: made in house
# T1 sequence (E9AFX2 1-338): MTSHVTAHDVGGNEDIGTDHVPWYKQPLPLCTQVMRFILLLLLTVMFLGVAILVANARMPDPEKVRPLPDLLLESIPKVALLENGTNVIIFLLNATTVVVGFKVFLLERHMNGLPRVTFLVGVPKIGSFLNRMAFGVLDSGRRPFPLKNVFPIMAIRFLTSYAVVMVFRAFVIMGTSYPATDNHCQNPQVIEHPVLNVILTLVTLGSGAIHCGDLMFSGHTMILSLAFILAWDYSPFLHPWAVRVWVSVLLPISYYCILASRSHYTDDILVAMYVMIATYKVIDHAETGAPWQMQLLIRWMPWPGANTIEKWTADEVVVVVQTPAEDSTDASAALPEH
# From the text: When tested against microsomal enzyme preparations of L. majIPCS[16] (Fig. 2, Table S1 ^†) the comparisons of pyrrolidine, tetrahydrofuran and cyclopentane derivatives 19, 21–23 supported earlier observations that all active compounds retained a basic nitrogen in the head group.[17] In general, whilst enzyme inhibitory activity was retained in a number of these analogues, much lower activity was observed against promastigote parasites. […] Speculating that this lower activity in promastigote parasite assays reflected a (membrane) transport issue, we then explored the corresponding ether derivative 27. Attempts to prepare this by acid catalysed ether formation failed and ultimately this was achieved through displacement of the corresponding benzylic chloride 25 (Scheme 3).
# Fig. 2 Activity of a selection of simple amide and triazole linked CF analogues against a microsomal preparation of L. majIPCS and L. major promastigote parasites, respectively.
# [4] = tested on: L. major PX promastigotes; test: on-target growth inhibition, add-back cell line (PX); assay type: cell-based, Leishmania major
# [5] = tested on: panel of neurotransmitter receptors; test: radioligand displacement assay, whole panel; assay type: binding, human
# Protocol: 4.2.3.6. Radioligand Binding Assay (Supplemental Figure S3)
# These assays were run by Eurofins under contract to LifeArc FR095-0011887. A representative protocol describing the human histamine H2 receptor (antagonist radioligand) assay is shown below.12 Cell membrane homogenates (24 µg protein) are incubated for 120 min at 22°C with 0.075 nM [125I]APT in the absence or presence of the test compound in a buffer containing 50 mM Na2HPO4/KH2PO4 (pH […]
# 7.4) and 0.05% BSA. […] Following
# [6] = tested on: L. amazonensis GFP promastigotes; test: mouse model of L. amazonensis infection (ear, IL dosing); assay type: in vivo, BALB/c mice; settings: 1.2 mg kg^−1 IL twice a week for 4 weeks
# Protocol: Consequently, we used IL dosing for this experiment. To enable direct comparison with CF, the same treatment regimen (dose of 1.2 mg kg^−1via IL injection twice a week for 4 weeks starting on DPI) was used for both compounds.
# A Weight variation of mice during 28 days of treatment. B Progression of lesion thickness over 28 day treatment period. C Representative photographs of the infected ear for each group taken after completion of treatment, D parasite burden was evaluated by LDA on 36 days post infection. […]
# In vivo assays were conducted as previously reported 1. Two month old BALB/c female mice, weighing 20 - 25 g and of approximately the same age were used for the study. For infection of mice, stationary phase GFP L. amazonensis promastigotes were collected, washed and suspended in sterile PBS. A volume of 10 μl of sterile PBS containing 2 x 10^6 parasites was injected into the right ear. […]
# Infected ear thicknesses were measured once or twice a week with a caliper gauge, and the lesion sizes were expressed as the difference between the thickness of infected and non-infected ear. On day 41 animals were sacrificed and the fluorescence measured (485 - 528 nm) and parasite load quantified using a limiting dilution assay (LDA).
# Data on lesion progression were analysed for statistical significance by using the Dunnett test as part of the one-way ANOVA (GraphPad Prism 8 software). […]
# [7] = promastigote parasites (Table 1), read-out: L.mj EC50
# [8] = 48 h, read-out: L. major promastigote EC50
# [9] = read-out: L. amaz promastigote EC50
# [10] = promastigotes, 48 h, read-out: L. major promastigote EC50
# [11] = promastigote parasites (Table 1), read-out: L.amaz EC50
smiles,measurement,setting,value
COC[C@H]1CCCN1CCOC(c1ccccc1)c1ccc(Cl)cc1 (stereo partly drawn) [38e],EC50,[1]; read-out: L.mj EC50,14.4 µM
same,EC50,[2]; read-out: L.amaz EC50,12.3 µM
C[C@H]1CCCN1CCCOC(c1ccccc1)c1ccc(Cl)cc1 (stereo partly drawn) [38h],EC50,[1]; [7],0.09 µM
COc1cccc(C(OCC[C@H]2CCCN2C)c2ccccc2)c1 (stereo partly drawn) [compound 31],EC50,[1]; [8],8.44 µM
same,EC50,[2]; [9],0.63 µM
O=C(CC1CCCN1)NC(c1ccccc1)c1ccc(Cl)cc1 (stereo not drawn) [compound 21],IC50,[3],6.95 µM
same,inhibition at 20 µM,"[3]; 20 µM, microsomal preparation",82.7%
same,EC50,[1]; [10],> 33 µM
"CN1CCC[C@@H]1CCO[C@](C)(c1ccccc1)c1ccc(Cl)cc1 [1a, clemastine fumarate, reference compound]",sensitivity in the add-back cell line (PX),[4],Sensitivity was restored
same,binding profile across receptor panel,[5],activity against a broad representation of receptor sub-types
same,lesion growth trends,[6]; 35 days post-infection,similar
same,parasitaemia (parasite burden by LDA) versus untreated group,[6]; LDA 36 days post infection,statistically significant reduction
O=C(CC1CCCC1)NC(c1ccccc1)c1ccc(Cl)cc1 (stereo not drawn) [compound 23],inhibition at 20 µM,"[3]; 20 µM, microsomal preparation",-5.4 ± 2.3%
CN1CCC[C@@H]1CCOC(c1ccccc1)c1ccc(Cl)cc1 (stereo partly drawn) [compound 10],IC50,[3],4.13 µM
same,inhibition at 20 µM,[3],78.1 ± 9.7%
same,EC50,[1]; [8],0.78 µM
CN1CCC[C@@H]1CCOC(c1ccccc1)c1ccc(Br)cc1 (stereo partly drawn) [compound 29],IC50,[3],3.21 µM
same,EC50,[1]; [8],1.36 µM
CN1CCC[C@@H]1CCO[C@H](c1ccccc1)c1ccc(Cl)cc1 [compound 35],EC50,[1]; [8],0.13 µM
same,EC50,[2]; [9],0.101 µM
same,binding profile across receptor panel,[5],activity against a broad representation of receptor sub-types
O=C(NCC1CCCN1)C(c1ccccc1)c1ccc(Cl)cc1 (stereo not drawn) [compound 19],IC50,[3],6.9 µM
same,inhibition at 20 µM,"[3]; 20 µM, microsomal preparation",81.2 ± 1.3%
same,EC50,[1]; [10],> 33 µM
Clc1ccc(C(OCCN2CCCC2)c2ccccc2)cc1 (stereo not drawn) [38f],EC50,[2]; read-out: L.amaz EC50,3.27 µM
Clc1ccc(C(OCCC2CCCN2)c2ccccc2)cc1 (stereo not drawn) [compound 7],IC50,[3],6.26 µM
same,inhibition at 20 µM,[3],78.1 ± 12.5%
same,EC50,[1]; [8],4.1 µM
C[C@H]1CCCN1CCOC(c1ccccc1)c1ccc(Cl)cc1 (stereo partly drawn) [38a],EC50,[1]; read-out: L.mj EC50,2.05 µM
same,EC50,[2]; read-out: L.amaz EC50,3.4 µM
COc1ccc(C(OCC[C@H]2CCCN2C)c2ccccc2)cc1 (stereo partly drawn) [compound 30],EC50,[1]; [8],6.83 µM
same,EC50,[2]; [9],0.5 µM
CN1CCCC1c1cn(C(c2ccccc2)c2ccc(Cl)cc2)nn1 (stereo not drawn) [14b],IC50,[3],8.49 µM
same,inhibition at 20 µM,"[3]; 20 µM, microsomal preparation",71 ± 9.7%
same,EC50,[1]; [10],> 33 µM
OC[C@H]1CCCN1CCOC(c1ccccc1)c1ccc(Cl)cc1 (stereo partly drawn) [38d],EC50,[1]; read-out: L.mj EC50,5.88 µM
same,EC50,[2]; read-out: L.amaz EC50,3.2 µM
C[C@H]1CCCN1CCO[C@@H](c1ccccc1)c1ccc(Cl)cc1 [38i],EC50,[1]; read-out: L.mj EC50,7.05 µM
C[C@@H]1CCCN1CCOC(c1ccccc1)c1ccc(Cl)cc1 (stereo partly drawn) [38b],EC50,[1]; read-out: L.mj EC50,2.65 µM
same,EC50,[2]; read-out: L.amaz EC50,4.1 µM
C[C@H]1CCCN1CCCCOC(c1ccccc1)c1ccc(Cl)cc1 (stereo partly drawn) [38g],EC50,[1]; [7],1.21 µM
COC(=O)[C@H]1CCCN1CCOC(c1ccccc1)c1ccc(Cl)cc1 (stereo partly drawn) [38c],EC50,[1]; read-out: L.mj EC50,23.8 µM
same,EC50,[2]; read-out: L.amaz EC50,17.4 µM
CN(C)CCn1ncc2ccc(NC(=O)C(c3ccccc3)c3ccc(Cl)cc3)cc21 (stereo not drawn) [compound 24],IC50,[3],2.41 µM
same,inhibition at 20 µM,"[3]; 20 µM, microsomal preparation",90.2 ± 2.4%
same,EC50,[1]; [10],> 10 µM
C[C@@H]1CCCN1CCO[C@@H](c1ccccc1)c1ccc(Cl)cc1 [38j],EC50,[1]; read-out: L.mj EC50,11.5 µM
CN1CCC[C@@H]1CCOC(c1ccccc1)c1ccccc1 [compound 28],EC50,[1]; [8],8.44 µM
same,EC50,[2]; [9],1.17 µM
C[C@@H]1CCCN1CCCO[C@H](c1ccccc1)c1ccc(Cl)cc1 [38m],EC50,[1]; [7],0.031 µM
same,EC50,[2]; [11],0.042 µM
CN(C)CCn1ncc2ccc(COC(c3ccccc3)c3ccc(Cl)cc3)cc21 (stereo not drawn) [compound 27],IC50,[3],4.72 µM
same,EC50,[1]; [10],> 5 µM
Clc1ccc([C@H](OCCCN2CCCC2)c2ccccc2)cc1 [38o],EC50,[1]; [7],0.08 µM
same,EC50,[2]; [11],0.1 µM
CN1CCC[C@H]1CCOC(c1ccccc1)c1ccc(Cl)cc1 (stereo partly drawn) [compound 9],IC50,[3],4.45 µM
same,inhibition at 20 µM,[3],81.2 ± 10.6%
same,EC50,[1]; [8],1.69 µM
CN1CCC[C@@H]1CCO[C@@H](c1ccccc1)c1ccc(Cl)cc1 [compound 37],EC50,[1]; [8],1.33 µM
same,EC50,[2]; [9],1.4 µM
CN1CCC[C@@H]1CCOC(c1ccccc1)c1ccc(F)cc1 (stereo partly drawn) [compound 32],EC50,[1]; [8],2.25 µM
same,EC50,[2]; [9],1.62 µM
C[C@@H]1CCCN1CCO[C@H](c1ccccc1)c1ccc(Cl)cc1 [38k],EC50,[1]; read-out: L.mj EC50,1.7 µM
same,EC50,[2]; read-out: L.amaz EC50,3.2 µM
CN1CCC[C@H]1c1cn(C(c2ccccc2)c2ccc(Cl)cc2)nn1 (stereo partly drawn) [14a],IC50,[3],14.5 µM
same,inhibition at 20 µM,"[3]; 20 µM, microsomal preparation",60.6 ± 9.2%
same,EC50,[1]; [10],> 33 µM
O=C(NCC1CCCO1)C(c1ccccc1)c1ccc(Cl)cc1 (stereo not drawn) [compound 22],inhibition at 20 µM,"[3]; 20 µM, microsomal preparation",2.9 ± 1.4%
CC1(C)CCCN1CCCO[C@H](c1ccccc1)c1ccc(Cl)cc1 [38n],EC50,[1]; [7],0.027 µM
same,EC50,[2]; [11],0.017 µM
CN1CCC[C@@H]1CCOC(c1ccc(F)cc1)c1ccc(F)cc1 [compound 33],EC50,[1]; [8],2.87 µM
same,EC50,[2]; [9],2.74 µM
